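Cultured in 96-well plates, cells were exposed to test compound for 48 hours across five concentrations. TGI: concentration producing complete growth inhibition.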 Where a SMILES comes first, the peptide text is derived from it. Bridges are numbered along the chain shown (N, C = ends). [ ]: non-standard residue; d: D form. The star is where a group is joined. Fmoc = O=C(OCC1c2ccccc2-c2ccccc21)*; Aib = CC(C)(N)C(=O)O; OtBu = CC(C)(C)O*; βAla = NCCC(=O)O
How the values were obtained:
Test in all cases: DTP human tumour cell line panel, 48 h
SNB-75 CNS = tested on: SNB-75 CNS
UO-31 renal = tested on: UO-31 renal
CAKI-1 renal = tested on: CAKI-1 renal
T-47D breast = tested on: T-47D breast
CCRF-CEM leukemia = tested on: CCRF-CEM leukemia
K-562 leukemia = tested on: K-562 leukemia
NCI-H23 lung = tested on: NCI-H23 lung
PC-3 prostate = tested on: PC-3 prostate
SF-295 CNS = tested on: SF-295 CNS
UACC-62 melanoma = tested on: UACC-62 melanoma
MCF7 breast = tested on: MCF7 breast
HCT-116 colon = tested on: HCT-116 colon
NCI-H460 lung = tested on: NCI-H460 lung
LOX IMVI melanoma = tested on: LOX IMVI melanoma
BT-549 breast = tested on: BT-549 breast
HOP-62 NSCLC = tested on: HOP-62 NSCLC
SN12C renal = tested on: SN12C renal
MOLT-4 leukemia = tested on: MOLT-4 leukemia

Measured: TGI

CC(C)C(NC(=O)OCC1c2ccccc2-c2ccccc21)C(=O)NC(CCC(=O)OC(C)(C)C)C(=O)OC(C)(C)C (stereo not given) (Fmoc-Val-Glu(OtBu)-OtBu; configuration not given here)
> 72.7 µM: T-47D breast
> 31.6 µM: SN12C renal
> 89.1 µM: SF-295 CNS
> 100 µM: all other assays above

CSC12c3cc(C)n(-c4ccc([N+](=O)[O-])cc4)c3CC(C)(C)CN1C(=O)C2Oc1ccccc1 (stereo not given)
> 100 µM: all assays above

CC1(C)NC(=O)C(NC(=O)C(N)CC(=O)O)CCCCNC(=O)CCNC1=O (stereo not given) (H-DK[Aib][βAla]; lactam 2-C; configuration not given here)
not listed: SN12C renal
> 100 µM: all other assays above

O=C(Nc1ccccc1)c1cc(S(=O)(=O)Nc2n[nH]c(=O)n2-c2ccccc2)c(S)cc1Cl
not listed: CCRF-CEM leukemia | NCI-H23 lung | SF-295 CNS | HOP-62 NSCLC
> 100 µM: all other assays above

CC(=O)OC[C@H]1CN(OC(C)=O)C[C@@H](n2cc(C)c(=O)[nH]c2=O)O1
not listed: CCRF-CEM leukemia | NCI-H23 lung | LOX IMVI melanoma
> 100 µM: all other assays above

N#CC(c1ccccc1)N(CCCCCCN(C(=O)c1ccccc1)C(C#N)c1ccccc1)C(=O)c1ccccc1 (stereo not given)
46.1 µM: UO-31 renal
84.2 µM: NCI-H460 lung
73.8 µM: NCI-H23 lung
83.4 µM: HCT-116 colon
77.7 µM: UACC-62 melanoma
not listed: HOP-62 NSCLC
> 100 µM: all other assays above

N#CC12C(=O)NC(=O)C1(C#N)C1C=CC2CC1 (stereo not given)
not listed: K-562 leukemia | NCI-H460 lung | HOP-62 NSCLC
> 100 µM: all other assays above

O=c1c2cc(-c3ccccc3)cnc2sn1-c1ccc(Br)cc1
not listed: LOX IMVI melanoma
> 100 µM: all other assays above

C=CC(=O)Nc1ccc(NC(=O)C=C)c2c1C(=O)c1ccccc1C2=O
48.4 µM: K-562 leukemia
96.4 µM: MOLT-4 leukemia
47.4 µM: LOX IMVI melanoma
57.4 µM: MCF7 breast
49.8 µM: SF-295 CNS
90.8 µM: UACC-62 melanoma
not listed: SNB-75 CNS | CAKI-1 renal | CCRF-CEM leukemia
> 100 µM: all other assays above

N#C/C(=C\c1ccc(F)cc1)c1nc(-c2cc3ccccc3oc2=O)cs1
25.7 µM: HOP-62 NSCLC
24.8 µM: BT-549 breast
30.3 µM: SF-295 CNS
38.7 µM: UACC-62 melanoma
97.9 µM: UO-31 renal
95.9 µM: SNB-75 CNS
not listed: NCI-H23 lung
> 100 µM: all other assays above

N#CC12C(=O)N3C(=NC(c4ccco4)NC3c3ccco3)C1(C#N)C(c1ccco1)NC1=C2CCCC1 (stereo not given)
not listed: SNB-75 CNS | CCRF-CEM leukemia
> 100 µM: all other assays above

COc1ccc(C(=O)C#Cc2cn(C3CC(O)C(CO)O3)c(=O)[nH]c2=O)cc1 (stereo not given)
> 10 µM: CCRF-CEM leukemia
40.4 µM: BT-549 breast
35.4 µM: T-47D breast
not listed: LOX IMVI melanoma
> 100 µM: all other assays above

Cc1ccc2c(=O)cc(-c3sccc3C)[nH]c2n1
> 24.4 µM: CCRF-CEM leukemia
> 38.1 µM: LOX IMVI melanoma
> 57.7 µM: MCF7 breast
> 47.2 µM: SN12C renal
> 27.8 µM: MOLT-4 leukemia
> 72 µM: UACC-62 melanoma
> 79.8 µM: NCI-H460 lung
> 28 µM: PC-3 prostate
18.7 µM: HCT-116 colon
23.8 µM: UO-31 renal
not listed: NCI-H23 lung
> 100 µM: all other assays above

Nc1nc(Cl)cc(NCC2(O)CCC2)n1
not listed: CCRF-CEM leukemia
> 100 µM: all other assays above

O=C1/C(=C\c2ccc(Cl)cc2)N=C(c2ccccc2)N1n1c(=O)cn[nH]c1=S
35.4 µM: MCF7 breast
15.7 µM: CCRF-CEM leukemia
54.9 µM: K-562 leukemia
28.6 µM: T-47D breast
53.3 µM: MOLT-4 leukemia
43.6 µM: NCI-H23 lung
92.3 µM: BT-549 breast
65.3 µM: LOX IMVI melanoma
not listed: SNB-75 CNS | SN12C renal
> 100 µM: all other assays above

CC(=O)O[C@@H]1C[C@]2(C(=O)c3ccccc3)C(=O)C(=O)S[C@]12c1ccccc1
94.3 µM: T-47D breast
85 µM: K-562 leukemia
not listed: CCRF-CEM leukemia
> 100 µM: all other assays above

CN1C(=O)C2(C)SC1(c1ccccc1)C1C(=O)N(c3ccccc3)C(=O)C12 (stereo not given)
not listed: SNB-75 CNS | CCRF-CEM leukemia | NCI-H460 lung
> 100 µM: all other assays above

CCOC(=O)C1(C#N)OC(=O)c2cnccc21 (stereo not given)
not listed: HOP-62 NSCLC
> 100 µM: all other assays above

COc1cc2c(cc1OC)OC(c1c(OC)ccc(OC)c1O)CC2 (stereo not given)
77.8 µM: CCRF-CEM leukemia
not listed: SN12C renal
> 100 µM: all other assays above

CCn1cc2c(=O)n3ncn(-c4ccc(Br)cc4)c3nc2n1
45.8 µM: SNB-75 CNS
not listed: NCI-H460 lung | LOX IMVI melanoma
> 100 µM: all other assays above

Cc1cc(S(=O)(=O)NC2=NCc3nc4ccccc4n32)c(S)cc1Cl
50.2 µM: MOLT-4 leukemia
37.6 µM: SF-295 CNS
50.3 µM: T-47D breast
60.4 µM: SNB-75 CNS
63.6 µM: UO-31 renal
82.4 µM: NCI-H460 lung
71.9 µM: BT-549 breast
86.6 µM: CCRF-CEM leukemia
70.1 µM: MCF7 breast
55.6 µM: PC-3 prostate
33.3 µM: UACC-62 melanoma
> 100 µM: CAKI-1 renal | K-562 leukemia
51 µM: SN12C renal
35 µM: LOX IMVI melanoma
34.5 µM: HCT-116 colon

Oc1c(Br)cc(/C=C/c2ccnc(/C=C/c3cc(Br)c(O)c(Br)c3)c2)cc1Br
60.1 µM: K-562 leukemia
60.3 µM: MCF7 breast
30.7 µM: HCT-116 colon
39 µM: PC-3 prostate
45.8 µM: MOLT-4 leukemia
73.8 µM: UACC-62 melanoma
52.1 µM: T-47D breast
35.4 µM: UO-31 renal
58.5 µM: SNB-75 CNS
not listed: NCI-H23 lung
> 100 µM: all other assays above

CN=C1Nc2ccccc2C(=O)N2CSCC12 (stereo not given)
not listed: NCI-H23 lung
> 100 µM: all other assays above

CCOC1CN=C(Nc2cccc3ccccc23)S1 (stereo not given)
not listed: UO-31 renal
> 10 µM: all other assays above

CCOC(=O)C(C(=O)OCC)=C1SC(=Nc2ccccc2)C(=Nc2ccccc2)N1c1ccccc1
not listed: LOX IMVI melanoma
> 100 µM: all other assays above

N#Cc1ccc(C(O)C(F)(F)c2nc3ccccc3o2)cc1 (stereo not given)
45.7 µM: K-562 leukemia
not listed: SN12C renal
> 100 µM: all other assays above

O=C1C2C(C(=O)N1c1ccccc1)C1(c3ccccc3)CCC2(C(=O)c2ccccc2)O1 (stereo not given)
not listed: SNB-75 CNS | K-562 leukemia
> 10 µM: all other assays above

— PubChem BioAssay (NCI)
